Biological target: KRasG12C (M1-K169, biotinylated on the N-terminus) (Homo sapiens (Human), UniProt P01116, G12C)
Test: Covalent competition assay: scintillation proximity assay (SPA) quantifying covalent modification of KRASG12C
Assay type: binding
Conditions: competition with radiolabeled covalent probe (Compound B/Compound A), 2 hours incubation, 10 nM KRasG12C
Outline: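 Scintillation proximity readout after streptavidin bead capture (30 min) of biotinylated KRasG12C(M1-K169):GDP, 10 nM final, which was covalently labelled over 2 h by 25 nM radio-probe plus 475 nM cold probe unless blocked by compound.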

| Compound | IC50 [µM] |
| --- | --- |
| C=CC(=O)N1CC2(CC(n3nc(N4CCC(N(C)C(=O)COC)CC4(C)C)c(-c4c(Cl)c(C)cc5[nH]ncc45)c3C)C2)C1 (single isomer, unassigned) [Example 96a, N-(1-(1-(2-acryloyl-2-azaspiro[3.3]heptan-6-yl)-4-(5-chloro-6-methyl-1H-indazol-4-yl)-5-methyl-1H-pyrazol-3-yl)-2,2-dimethylpiperidin-4-yl)-2-methoxy-N-methylacetamide] | > 5 |
| C=CC(=O)N1CC2(CC(n3nc(N4CCC(N(C)C(=O)COC)CC4(C)C)c(-c4c(Cl)c(C)cc5[nH]ncc45)c3C)C2)C1 (single isomer, unassigned) [Example 96b, N-(1-(1-(2-acryloyl-2-azaspiro[3.3]heptan-6-yl)-4-(5-chloro-6-methyl-1H-indazol-4-yl)-5-methyl-1H-pyrazol-3-yl)-2,2-dimethylpiperidin-4-yl)-2-methoxy-N-methylacetamide] | 0.011 |
| C=CC(=O)N1CC2(CC(n3nc(N4CCC(N(C)C(=O)COC)CC4(C)C)c(-c4c(Cl)c(C)cc5[nH]ncc45)c3C)C2)C1 (single isomer, unassigned) [Example 97a, N-(1-(1-(2-acryloyl-2-azaspiro[3.3]heptan-6-yl)-4-(5-chloro-6-methyl-1H-indazol-4-yl)-5-methyl-1H-pyrazol-3-yl)-2,2-dimethylpiperidin-4-yl)-2-methoxy-N-methylacetamide] | 0.3 |
| C=CC(=O)N1CC2(CC(n3nc(N4CCC(N(C)C(=O)COC)CC4(C)C)c(-c4c(Cl)c(C)cc5[nH]ncc45)c3C)C2)C1 (single isomer, unassigned) [Example 97b, N-(1-(1-(2-acryloyl-2-azaspiro[3.3]heptan-6-yl)-4-(5-chloro-6-methyl-1H-indazol-4-yl)-5-methyl-1H-pyrazol-3-yl)-2,2-dimethylpiperidin-4-yl)-2-methoxy-N-methylacetamide] | 1.7 |
| C=CC(=O)N1CC2(CC(n3nc(N4CCC(C(=O)N(C)C)CC4(C)C)c(-c4c(Cl)c(C)cc5[nH]ncc45)c3C)C2)C1 (single isomer, unassigned) [Example 98b, 1-(1-(2-acryloyl-2-azaspiro[3.3]heptan-6-yl)-4-(5-chloro-6-methyl-1H-indazol-4-yl)-5-methyl-1H-pyrazol-3-yl)-N,N,2,2-tetramethylpiperidine-4-carboxamide] | 0.019 |
| C=CC(=O)N1CC2(CC(n3nc(N4CCC(C(=O)N(C)C)CC4(C)C)c(-c4c(Cl)c(C)cc5[nH]ncc45)c3C)C2)C1 (single isomer, unassigned) [Example 99a, 1-(1-(2-acryloyl-2-azaspiro[3.3]heptan-6-yl)-4-(5-chloro-6-methyl-1H-indazol-4-yl)-5-methyl-1H-pyrazol-3-yl)-N,N,2,2-tetramethylpiperidine-4-carboxamide] | 2.9 |
| C=CC(=O)N1CC2(CC(n3nc(N4CCN(Cc5ccccc5)CC45CCC5)c(-c4c(Cl)c(C)cc5[nH]ncc45)c3C)C2)C1 (single isomer, unassigned) [Example 100a, 1-(6-(3-(8-benzyl-5,8-diazaspiro[3.5]nonan-5-yl)-4-(5-chloro-6-methyl-1H-indazol-4-yl)-5-methyl-1H-pyrazol-1-yl)-2-azaspiro[3.3]heptan-2-yl)prop-2-en-1-one] | > 5 |
| C=CC(=O)N1CC2(CC(n3nc(N4CCN(Cc5ccccc5)CC45CCC5)c(-c4c(Cl)c(C)cc5[nH]ncc45)c3C)C2)C1 (single isomer, unassigned) [Example 100b, 1-(6-(3-(8-benzyl-5,8-diazaspiro[3.5]nonan-5-yl)-4-(5-chloro-6-methyl-1H-indazol-4-yl)-5-methyl-1H-pyrazol-1-yl)-2-azaspiro[3.3]heptan-2-yl)prop-2-en-1-one] | 0.086 |
| C=CC(=O)N1CC2(CC(n3nc(N4CCn5nccc5C4(C)C)c(-c4c(Cl)c(C)cc5[nH]ncc45)c3C)C2)C1 (single isomer, unassigned) [Example 101a, 1-(6-(4-(5-chloro-6-methyl-1H-indazol-4-yl)-3-(4,4-dimethyl-6,7-dihydropyrazolo[1,5-a]pyrazin-5(4H)-yl)-5-methyl-1H-pyrazol-1-yl)-2-azaspiro[3.3]heptan-2-yl)prop-2-en-1-one] | > 50 |
| C=CC(=O)N1CC2(CC(n3nc(N4CCn5nccc5C4(C)C)c(-c4c(Cl)c(C)cc5[nH]ncc45)c3C)C2)C1 (single isomer, unassigned) [Example 101b, 1-(6-(4-(5-chloro-6-methyl-1H-indazol-4-yl)-3-(4,4-dimethyl-6,7-dihydropyrazolo[1,5-a]pyrazin-5(4H)-yl)-5-methyl-1H-pyrazol-1-yl)-2-azaspiro[3.3]heptan-2-yl)prop-2-en-1-one] | 0.103 |
| C=CC(=O)N1CC2(CC(n3nc(N4CCC(N5C[C@H](OC)[C@H](OC)C5)CC4(C)C)c(-c4c(Cl)c(C)cc5[nH]ncc45)c3C)C2)C1 (single isomer, unassigned) [Example 102a] | > 5 |
| C=CC(=O)N1CC2(CC(n3nc(N4CCC(N5C[C@H](OC)[C@H](OC)C5)CC4(C)C)c(-c4c(Cl)c(C)cc5[nH]ncc45)c3C)C2)C1 (single isomer, unassigned) [Example 102b] | 0.023 |
| C=CC(=O)N1CC2(CC(n3nc(N4CCCCC4(C)C)c(-c4c(Cl)c(C)cc5[nH]ncc45)c3C)C2)C1 (single isomer, unassigned) [Example 103a, 1-(6-(4-(5-chloro-6-methyl-1H-indazol-4-yl)-3-(2,2-dimethylpiperidin-1-yl)-5-methyl-1H-pyrazol-1-yl)-2-azaspiro[3.3]heptan-2-yl)prop-2-en-1-one] | > 5 |
| C=CC(=O)N1CC2(CC(n3nc(N4CCCCC4(C)C)c(-c4c(Cl)c(C)cc5[nH]ncc45)c3C)C2)C1 (single isomer, unassigned) [Example 103b, 1-(6-(4-(5-chloro-6-methyl-1H-indazol-4-yl)-3-(2,2-dimethylpiperidin-1-yl)-5-methyl-1H-pyrazol-1-yl)-2-azaspiro[3.3]heptan-2-yl)prop-2-en-1-one] | 0.315 |
| C=CC(=O)N1CC2(CC(n3nc(N4C[C@H](C)N(C5COC5)CC4(C)C)c(-c4c(Cl)c(Cl)cc5[nH]ncc45)c3C)C2)C1 (single isomer, unassigned) [Example 104a] | 4.44 |
| C=CC(=O)N1CC2(CC(n3nc(N4C[C@H](C)N(C5COC5)CC4(C)C)c(-c4c(Cl)c(Cl)cc5[nH]ncc45)c3C)C2)C1 (single isomer, unassigned) [Example 104b] | 0.027 |
| C=CC(=O)N1CC2(CC(n3nc(N4CCN(C[C@@H]5COCCO5)C[C@@]4(C)C(F)F)c(-c4c(Cl)c(Cl)cc5[nH]ncc45)c3C)C2)C1 (single isomer, unassigned) [Example 105a] | > 5 |
| C=CC(=O)N1CC2(CC(n3nc(N4CCN(C[C@@H]5COCCO5)C[C@@]4(C)C(F)F)c(-c4c(Cl)c(Cl)cc5[nH]ncc45)c3C)C2)C1 (single isomer, unassigned) [Example 105b] | 0.019 |
| C=CC(=O)N1CC2(CC(n3nc(N4C5CCC4COC5)c(-c4c(Cl)c(C)cc5[nH]ncc45)c3C)C2)C1 (single isomer, unassigned) [Example 112a] | > 5 |
| C=CC(=O)N1CC2(CC(n3nc(N4C5CCC4COC5)c(-c4c(Cl)c(C)cc5[nH]ncc45)c3C)C2)C1 (single isomer, unassigned) [Example 112b] | 0.171 |

Continued, values first:

| IC50 [µM] | Compound |
| --- | --- |
| > 5 | C=CC(=O)N1CC2(CC(n3nc(N4CCN(C5CCOCC5)C[C@@]4(C)C(F)F)c(-c4c(Cl)c(Cl)cc5[nH]ncc45)c3C)C2)C1 (single isomer, unassigned) [Example 106a] |
| 0.014 | C=CC(=O)N1CC2(CC(n3nc(N4CCN(C5CCOCC5)C[C@@]4(C)C(F)F)c(-c4c(Cl)c(Cl)cc5[nH]ncc45)c3C)C2)C1 (single isomer, unassigned) [Example 106b] |
| > 5 | C=CC(=O)N1CC2(CC(n3nc(N4CCN(C[C@@H]5COCCO5)C[C@@]4(CC)C(F)F)c(-c4c(Cl)c(C)cc5[nH]ncc45)c3C)C2)C1 (single isomer, unassigned) [Example 107a] |
| 0.01 | C=CC(=O)N1CC2(CC(n3nc(N4CCN(C[C@@H]5COCCO5)C[C@@]4(CC)C(F)F)c(-c4c(Cl)c(C)cc5[nH]ncc45)c3C)C2)C1 (single isomer, unassigned) [Example 107b] |
| > 5 | C=CC(=O)N1CC2(CC(n3nc(N4CC5(CCOC5)C4)c(-c4c(Cl)c(Cl)cc5[nH]ncc45)c3C)C2)C1 (single isomer, unassigned) [Example 108a, 1-(6-(4-(5,6-dichloro-1H-indazol-4-yl)-5-methyl-3-(6-oxa-2-azaspiro[3.4]octan-2-yl)-1H-pyrazol-1-yl)-2-azaspiro[3.3]heptan-2-yl)prop-2-en-1-one] |
| 0.576 | C=CC(=O)N1CC2(CC(n3nc(N4CC5(CCOC5)C4)c(-c4c(Cl)c(Cl)cc5[nH]ncc45)c3C)C2)C1 (single isomer, unassigned) [Example 108b, 1-(6-(4-(5,6-dichloro-1H-indazol-4-yl)-5-methyl-3-(6-oxa-2-azaspiro[3.4]octan-2-yl)-1H-pyrazol-1-yl)-2-azaspiro[3.3]heptan-2-yl)prop-2-en-1-one] |
| 0.334 | C=CC(=O)N1CC2(CC(n3nc(N4CCN(C[C@@H]5COCCO5)C[C@]4(C)CC)c(-c4c(Cl)c(C)cc5c4cnn5C)c3C)C2)C1 (single isomer, unassigned) [Example 109a] |
| > 5 | C=CC(=O)N1CC2(CC(n3nc(N4CCN(C[C@@H]5COCCO5)C[C@]4(C)CC)c(-c4c(Cl)c(C)cc5c4cnn5C)c3C)C2)C1 (single isomer, unassigned) [Example 109b] |
| > 5 | C=CC(=O)N1CC2(CC(n3nc(N4CC[C@@H](OCCN5CCOCC5)CC4(C)C)c(-c4c(Cl)c(Cl)cc5[nH]ncc45)c3C)C2)C1 (single isomer, unassigned) [Example 110a] |
| 0.01 | C=CC(=O)N1CC2(CC(n3nc(N4CC[C@@H](OCCN5CCOCC5)CC4(C)C)c(-c4c(Cl)c(Cl)cc5[nH]ncc45)c3C)C2)C1 (single isomer, unassigned) [Example 110b] |

Source: US20240317721A1, “PYRAZOLYL DERIVATIVES AS INHIBITORS OF THE KRAS MUTANT PROTEIN” (NOVARTIS AG, priority 2021, published 2024)
